Experimental data from patent US20050118263A1, “Composition” (priority 2002, published 2005).
One block for each compound: values may come before it.

Experiments:
healthy, unmedicated men = assay: Randomised, double-blind, crossover trial in healthy men: cognitive tests at end of each phase (Example 2); format: in vivo, human; settings: 4 weeks per phase, carbenoxolone 100 mg 8 hourly + amiloride 10 mg daily by mouth vs placebo + amiloride, p<0.01
Description: 10 healthy, unmedicated men (65.5 plus/minus SD 5.5y) participated in a randomised, double-blind, crossover trial comparing carbenoxolone (100 mg 8 hourly for 4 weeks by mouth) plus amiloride (10 mg daily by mouth) with placebo (8 hourly for 4 weeks by mouth) plus amiloride (10 mg daily by mouth). Each study phase lasts 4 weeks. The two phases are separated by an 8 week washout period. The order of carbenoxolone or placebo is randomised and the subjects and the experimenters are blind to the treatment given. Participants are asked to look out for potential adverse effects of carbenoxolone, including weight gain and pedal edema, and blood pressure and plasma electrolytes are monitored weekly. Compliance is assessed by pill counting and detecting carbenoxolone in plasma by high performance liquid chromatography. At the end of each phase, tests of verbal fluency, verbal memory, visuospatial memory, attention and processing speed, and intelligence are performed. Data are mean+/−SEM for the % change in cognitive score, calculated for each individual as (score with carbenoxolone+amiloride)−(score with placebo+amiloride)/(score with placebo+amiloride)×100. P values refer to comparison of absolute data in the two groups. Statistical analysis is conducted using Mann-Witney U tests and Friedman's non-parametric ANOVAs.

[1] = system: patients with type 2 diabetes; assay: Randomised double-blind placebo controlled crossover trial in type 2 diabetes patients: cognitive tests at end of each phase (Example 3); format: in vivo, human; settings: 6 weeks per phase
Description: 12 patients with type 2 diabetes by World Health Organisation criteria (age range 52-70 y, mean 60.1 y), including 3 women and 9 men, participated in a randomised double-blind placebo controlled crossover trial comparing carbenoxolone (100 mg 8 hourly for 6 weeks by mouth) plus amiloride (10 mg daily by mouth) with placebo (8 hourly for 6 weeks by mouth) plus amiloride (10 mg daily by mouth). The two phases are separated by a washout period of 8 weeks. The order of carbenoxolone or placebo is randomised and the subjects and the experimenters are blind to the treatment given. At the end of each phase, tests of verbal fluency, verbal memory, visuospatial memory, attention and processing speed and intelligence are performed.

[2] = known from Yau et al. (1999) Neurosci Lett 277: 45-48; cited from earlier work
[3] = system: patients with type 2 diabetes; assay: Withdrawals from treatment in patients with type 2 diabetes; format: in vivo, human; settings: carbenoxolone alone: of 8 patients, including one hospital admission with hypokalaemia

Compound: NC(N)=NC(=O)c1nc(Cl)c(N)nc1N [Placebo with Amiloride, 3,5-diamino-6-chloro-N-(diaminomethylene) pyrazinecarboxamide]
verbal fluency (Controlled Word Association test), mean/SD (healthy, unmedicated men): 41/12
Processing speed: DSST, Mean (SD) ([1]; Digit Symbol Substitution test, p 0.78): 50.3 (6.7)
Reasoning: RSPM, Mean (SD) ([1]; Ravens Standard Progressive Matrices, p 0.17): 44.0 (6.6)
Verbal memory: Rey AVLT, Mean (SD) ([1]; Rey Auditory Verbal Learning Test, p <0.01): 56.1 (8.7)
Verbal memory: WM Logical Memory, Mean (SD) ([1]; Wechsler Memory Scale-revised, p 0.78): 49.7 (13.8)
Visual memory: WM Visual reproduction, Mean (SD) ([1]; Wechsler Memory Scale-revised, p 0.94): 59.9 (13.3)
Executive function: Verbal Fluency, Mean (SD) ([1]; p 0.48 between phases): 42.2 (8.4)

Compound: CC(=O)S[C@@H]1CC2=CC(=O)CC[C@]2(C)[C@H]2CC[C@@]3(C)[C@@H](CC[C@@]34CCC(=O)O4)[C@H]12 [Spironolactone, 17-hydroxy-7-alpha-mercapto-3-oxo-17-alpha-pregn-4-ene-21-carboxylic acid gamma-lactone acetate]
unwanted effects on cognitive function [2]: reduce cognitive function

withdrawals due to sodium retention [3]: 3
Compound: CC1(C)[C@@H](OC(=O)CCC(=O)O)CC[C@]2(C)[C@H]3C(=O)C=C4[C@@H]5C[C@@](C)(C(=O)O)CC[C@]5(C)CC[C@@]4(C)[C@]3(C)CC[C@@H]12 [carbenoxolone]
